Results published in US5284853A, “Angiotensin II receptor blocking 2,3,6 substituted quinazolinones” (American Cyanamid Company, priority 1993, dated 1994).
Where “and” joins values, the source holds several entries; their conditions need not be identical. Equal entries are not always repeated.

What was measured:
[1] = target: T1, Angiotensin II Receptor (Bos taurus, UniProt P25104); experiment: Receptor binding assay: competition of [^125 I](Sar^1,Ile^8)AngII binding to beef adrenal cortex microsomal membranes; settings: 60 min, room temperature, pH 7.4
T1 construct: The brownish tissue forming the adrenal cortex is scraped off and finely minced with scissors before homogenization; tissue local slaughter house (Maxwell-Cohen); host or cells: beef adrenal cortex, microsomal membranes (100,000×g pellet)
T1 sequence (P25104 1-359): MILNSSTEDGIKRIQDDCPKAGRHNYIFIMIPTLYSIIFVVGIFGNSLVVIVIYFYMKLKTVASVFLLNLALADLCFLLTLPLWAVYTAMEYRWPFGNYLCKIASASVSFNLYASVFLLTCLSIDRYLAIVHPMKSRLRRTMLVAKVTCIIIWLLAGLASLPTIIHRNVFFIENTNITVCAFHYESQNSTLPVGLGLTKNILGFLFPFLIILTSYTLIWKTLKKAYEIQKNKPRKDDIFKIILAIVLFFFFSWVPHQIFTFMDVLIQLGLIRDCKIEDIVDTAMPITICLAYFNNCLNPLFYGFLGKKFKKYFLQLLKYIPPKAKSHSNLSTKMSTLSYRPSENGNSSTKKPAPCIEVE
Text: Beef adrenals are obtained from a local slaughter house (Maxwell-Cohen). [^125 […]. 2200 Ci/mmole, is purchased from Dupont (KEN@, Boston, Mass.). All unlabeled AngII analogs, Dimethylsulfoxide (DMSO), nucleotides, bovine serum albumin (BBA) are purchased from Sigma Chemical Co., St. Louis, MO U.S.A. Approximately sixteen (16) to twenty (20) beef adrenal glands are processed as follows: fresh adrenal glands received on crushed ice are cleaned of fatty tissues and the tough membranes encapsulating the glands are removed and discarded. The brownish tissue forming the adrenal cortex is scraped off and finely minced with scissors before homogenization care is taken to avoid contamination with medullary tissue during dissection. […] Unless otherwise indicated, all subsequent operations are done at […]. […] The homogenate is centrifuged first at low speed (3,000×g) for 10 min. […] This P2 pellet is discarded and the liquid phase is carefully decanted off in clean centrifuge tubes and recentrifuged at high speed (100,000×g) for 60 min. The translucent final pellet is harvested and combined in a small volume (20-50.0 ml) of […] Tris.HCl buffer, pH 7.2. A 100 ul aliquot is withdrawn and the protein content of the preparation is determined by the Lowry's method (Lowry, O. H., Rosebrough, N. P., Parr, A. L. and Randall, R. J., Protein measurement with Folin phenol reagent. J. Biol. Chem., […], 265-275, 1951). The pelleted membrane is reconstituted in 50.0 mM Tris.HCl buffer containing 0.1 mM of phenylmethylsulfonyl fluoride (PMSF) to give approximately a protein concentration of 2.5 mg per ml of tissue suspension. […] In competition studies, experimental compounds are diluted in dimethylsulfoxide (DMSO) and added in 20 ul to wells before the introduction of tissue membranes. This concentration of DMSO is found to have no negative effects on the binding of [^125 I] ([…] to the membranes. Assays are performed in triplicate. The wells are left undisturbed for 60 min. at room temperature. Following incubation, all wells are harvested at once with a Brandel® Harvester especially designed for a 96 well plate (Brandel® Biomedical Research & Development Labs. Inc., Gaithersburg, MD, U.S.A.). The filter discs are washed with 10×1.0 ml of cold 0.9% NaCl to remove unbound ligand. Presoaking the filter sheet in 0.1% polyethyleneimine in normal saline (PEI/Saline) greatly reduces the radioactivity retained by the filter blanks. This method is routinely used. The filters are removed from the filter grid and counted in a Parkard® Cobra Gamma Counter for 1 min. (Packard Instrument Co., Downers Grove, Ill, U.S.A.). The binding data are analyzed by the non-linear interactive "LUNDON-11" program (LUNDON SOFTWARE Inc., Cleveland, OH U.S.A.).

[2] = system: Angiotensin II (AII) vasopressor response; experiment: AII Challenge: antagonism of the angiotensin II vasopressor response in conscious SHR; type: in vivo, Spontaneously hypertensive rats (Male okamoto-Aoki SHR); settings: 5 mg/kg I.V.; for Average Change / Inhibition: n = 2; for Change / Control Before AII / Response After AII: per rat
Text: […] Conscious Male okamoto-Aoki SHR, 16-20 weeks old, weighing approximately 330 g are purchased from Charles River Labs (Wilmington, MA). Conscious rats are restrained in a supine position with elastic tape. The area at the base of the tail is locally anesthetized by subcutaneous infiltration with 2% procaine. […] The cannula is secured, heparinized (1,000 I.U./ml), sealed and the wound is closed. The animals are placed in plastic restraining cages in an upright position. The cannula is attached to a Statham P23Db pressure transducer, and pulsatile blood pressure is recorded to 10-15 minutes with a Gould Brush recorder. (Chan et al., (Drug Development Res., 18:75-94, 1989). […] Co., St. […] […] […] […] […] A compound is considered active if at 30 mg/kg i.v. it antagonized at least 50% of the response.

[3] = AII 0.05 mcg/kg IV, 30 min post dose
[4] = AII 0.05 mcg/kg IV, 60 min post dose
[5] = AII 0.05 mcg/kg IV, 90 min post dose
[6] = AII 0.05 mcg/kg IV, 180 min post dose
[7] = AII 0.1 mcg/kg IV, 30 min post dose
[8] = AII 0.1 mcg/kg IV, 60 min post dose
[9] = AII 0.1 mcg/kg IV, 90 min post dose
[10] = AII 0.1 mcg/kg IV, 120 min post dose
[11] = AII 0.1 mcg/kg IV, 180 min post dose
[12] = AII 0.5 mcg/kg IV, 120 min post dose

## CCCCc1nc2ccc(C3CC(c4ccc(C)s4)=NO3)cc2c(=O)n1Cc1ccc(-c2ccccc2-c2nnn[nH]2)cc1 (stereo not drawn) [Example 21]
[1]
  IC50: 330 nM
[2]; [3]
  Average Change: 13.5 mmhg
  Inhibition: 72%
  Change: 17 mmhg and 10 mmhg
  Control Before AII: 188 mmhg and 180 mmhg
  Response After AII: 205 mmhg and 190 mmhg
[2]; [4]
  Average Change: 25 mmhg
  Inhibition: 47%
  Change: 35 mmhg and 15 mmhg
  Control Before AII: 175 mmhg
  Response After AII: 210 mmhg and 190 mmhg
[2]; [5]
  Average Change: 24 mmhg
  Inhibition: 49%
  Change: 25 mmhg and 23 mmhg
  Control Before AII: 170 mmhg and 157 mmhg
  Response After AII: 195 mmhg and 180 mmhg
[2]; [6]
  Average Change: 30 mmhg
  Inhibition: 37%
  Change: 40 mmhg and 20 mmhg
  Control Before AII: 170 mmhg and 160 mmhg
  Response After AII: 210 mmhg and 180 mmhg
[2]; [7]
  Average Change: 27.5 mmhg
  Inhibition: 41%
  Change: 30 mmhg and 25 mmhg
  Control Before AII: 180 mmhg and 175 mmhg
  Response After AII: 210 mmhg and 200 mmhg
[2]; [8]
  Average Change: 34 mmhg
  Inhibition: 28%
  Change: 38 mmhg and 30 mmhg
  Control Before AII: 175 mmhg and 165 mmhg
  Response After AII: 213 mmhg and 195 mmhg
[2]; [9]
  Average Change: 31 mmhg
  Inhibition: 34%
  Change: 40 mmhg and 22 mmhg
  Control Before AII: 175 mmhg and 163 mmhg
  Response After AII: 215 mmhg and 185 mmhg
[2]; [10]
  Average Change: 31.5 mmhg
  Inhibition: 33%
  Change: 40 mmhg and 23 mmhg
  Control Before AII: 175 mmhg and 160 mmhg
  Response After AII: 215 mmhg and 183 mmhg
[2]; [11]
  Average Change: 40 mmhg
  Inhibition: 15%
  Change: 50 mmhg and 30 mmhg
  Control Before AII: 175 mmhg and 160 mmhg
  Response After AII: 225 mmhg and 190 mmhg
[2]; [12]
  Average Change: 27.5 mmhg
  Inhibition: 42%
  Change: 35 mmhg and 20 mmhg
  Control Before AII: 185 mmhg and 160 mmhg
  Response After AII: 220 mmhg and 180 mmhg
